Results on 15 molecules are retold here after patent publication US4529549A, “Spergualin-related compounds and process for the preparation thereof” (Zaidan Hojin Biseibutsu Kagaku Kenkyu Kai, priority 1982, dated 1985).

Data set [1] can be described thus: Stability of the compounds in aqueous solutions (HPLC residual content). The data set is classed as physicochemical. The note with it: for remaining at 12 h / remaining at 24 h / remaining at 48 h / remaining at 72 h / remaining at 120 h / remaining at 168 h: water; for Residual content (%) of the compound in an aqueous solution: 0.5 (w/w)% in water, 40°±1° C., initial content = 100%. The procedure: Each of the compounds of this invention was dissolved in water to a concentration of 0.5 (w/w)%. The aqueous solution was maintained at 40°±1° C., and sampled at certain time intervals. Each sample was subjected to high-performance liquid chromatographic analysis to measure the area of the peak of the compound at each sampling time, and to calculate the ratio of the area of the peak after the indicated period of time to that at the first sampling time. The results of the calculation were used to determine the contents (%) of the compound of this invention in the aqueous solution after the indicated periods of time, with the initial content of said compound set at 100%.

In another data set the test system is Bacillus subtilis PCI219. Briefly: Growth-inhibiting action on Bacillus subtilis (agar plate MIC). The data set is classed as cell-based. The note with it: nutrient agar, 20 hours at 37° C. As to the method:
Each of the compounds of this invention was dissolved in nutrient agar media to final concentrations of 100, 50, 25, 12.5, 6.25, 3.13 and 1.56 μg/ml, to prepare agar plates for testing. Bacillus subtilis PCI219 was adjusted to a content of 1×10^6 viable cells/ml, in a culture broth, and a loopful of the broth was applied onto the agar plates. The plates were incubated for 20 hours at 37° C. under stationary conditions, and observed for the formation of colonies of Bacillus subtilis. The lowest of the concentrations at which no colonies were formed was taken to be minimum inhibitory concentration (MIC).

Data set [2] concerns mouse leukemia L1210 cells. Briefly: In vitro proliferation-inhibiting action on mouse leukemia L1210 cells. The note with it: 48 hours at 37° C. The format is cell-based. As to the method: Leukemia L1210 cells (1×10^5 /0.2 ml) were transplanted to female DBA/2 mice intraperitoneally. four days later, the ascitic fluid was collected and centrifuged to obtain proliferated L1210 cells. The L1210 cells collected were added to RPMI1640 medium containing bovine fetal serum and 2-mercaptoethanol, to obtain a suspension of L1210 cells having a final concentration of 5×10^4 cells/0.9 ml. Each of the compounds of this invention was dissolved in said culture medium to prepare solutions with final concentrations ranging from 0.062 to 100 μg/ml. 0.9 ml of the L1210 cell suspension and 0.1 ml of each test solution were mixed in petri dishes, and incubated for 48 hours at 37° C. in an incubator under an atmosphere of carbon dioxide gas. The number of L1210 cells was counted before and after the incubation, and that concentration of the compound which inhibited the proliferation of L1210 cells by 50% of the control's proliferation was determined (IC50).

Setting [3] is: Bacillus subtilis, PCI219, read-out: MIC.

Structures are written as SMILES. Converted amounts (≈) assume the structure as drawn. Counter-ions that a name gives are not always drawn. Like-named read-outs stand apart in the source and are kept apart here.

The MIC is the smallest concentration in the dilution series that meets the test's criterion for growth inhibition. Usually IC50 stands for the point on the concentration scale where inhibition reaches its midpoint. Consider `N=C(N)NCCCCCCC(=O)NC(CCO)C(=O)NCCCCNCCCN` (racemic) [Compound 18], for which, in data set [1], the amount remaining at 12 h was found to be 100%, the amount remaining at 24 h turned out to be 99.5%, the amount remaining at 48 h turned out to be 99.7% and the fraction remaining at 72 h is 99.3%. Further, in data set [1], the amount remaining at 120 h was 99.7% and the fraction remaining at 168 h is 99.5%. Further, the minimum inhibitory concentration (MIC) with Bacillus subtilis PCI219 (setting [3]) is 100 µg/mL (≈ 241 µM). Also, the IC50 in data set [2] is 150 µg/mL (≈ 361 µM).
`N=C(N)NCCCC[C@H](O)CC(=O)N[C@@H](CO)C(=O)NCCCCNCCCN` [Compound 3, 10-[N--(7-guanidino-3(S)--hydroxyheptanoyl)-L-seryl]-1,5,10-triazadecane trihydrochloride]: in data set [1], the amount remaining at 12 h is 99.3%, the fraction remaining at 24 h turned out to be 99.5%, the amount remaining at 48 h stood at 100% and the amount remaining at 72 h is 99.6%. Further, in data set [1], the amount remaining at 120 h was 99.7% and the share remaining at 168 h is 100%. In addition, the MIC in the data set with Bacillus subtilis PCI219 (setting [3]) was determined as 6.25 µg/mL. The molecule also had an IC50 in data set [2] of 0.95 µg/mL.
Turning to `N=C(N)NCCCCCCC(=O)N[C@H](CO)C(=O)NCCCCNCCCN` [Compound 4, 10-[N--(7-guanidinoheptanoyl)-D-seryl]-1,5,10-triazadecane trihydrochloride], in data set [1], the share remaining at 12 h turned out to be 101%, the share remaining at 24 h was determined as 100%, the share remaining at 48 h was 100% and the share remaining at 72 h stood at 99.7%. Also, in data set [1], the amount remaining at 120 h was 99.6% and the share remaining at 168 h is 100%. For the same molecule, the MIC with Bacillus subtilis PCI219 (setting [3]) stood at 12.5 µg/mL. In data set [2], this molecule had an IC50 of 3.6 µg/mL.
Turning to `C[C@H](NC(=O)CCCCCCNC(=N)N)C(=O)NCCCCNCCCN` [Compound 5, 10-[N--(7-guanidinoheptanoyl)-L-alanyl]-1,5,10-triazadecane trihydrochloride], in data set [1], the fraction remaining at 12 h came to 99.8%, the amount remaining at 24 h stood at 99.8%, the fraction remaining at 48 h came to 100% and the amount remaining at 72 h is 99.6%. In data set [1], the fraction remaining at 120 h amounted to 99% and the amount remaining at 168 h was 99.9%. Further, the MIC in the data set with Bacillus subtilis PCI219 (setting [3]) stood at 25 µg/mL. The molecule further yielded a concentration for half-maximal inhibition (IC50) in data set [2] of 37 µg/mL.
Regarding `N=C(N)NCCCCCCC(=O)NCCC(=O)NCCCCNCCCN` [Compound 6, 10-[N--(7-guanidinoheptanoyl)-β-alanyl]-1,5,10-triazadecane trihydrochloride], in data set [1], the fraction remaining at 12 h worked out at 100%, the fraction remaining at 24 h was 100%, the fraction remaining at 48 h turned out to be 99.6% and the amount remaining at 72 h is 99.6%. In data set [1], the share remaining at 120 h worked out at 99.9% and the fraction remaining at 168 h was found to be 100%. Moreover, the MIC in the data set with Bacillus subtilis PCI219 (setting [3]) worked out at 25 µg/mL. In data set [2], this molecule had an IC50 of 0.84 µg/mL.
`N=C(N)NCCCCCCC(=O)NCCCC(=O)NCCCCNCCCN` [Compound 7, 10-[N--(7-guanidinoheptanoyl)-γ-aminobutanoyl]-1,5,10-triazadecane trihydrochloride]: in data set [1], the amount remaining at 12 h is 99.9%, the share remaining at 24 h amounted to 100%, the amount remaining at 48 h amounted to 99.8% and the share remaining at 72 h turned out to be 99.9%. Further, in data set [1], the amount remaining at 120 h is 100% and the amount remaining at 168 h was determined as 99.8%. Besides, the MIC in the data set with Bacillus subtilis PCI219 (setting [3]) was determined as 25 µg/mL. The same molecule registered a half-inhibitory concentration (IC50) in data set [2] of 1.9 µg/mL.
On to `N=C(N)NCCCCCCC(=O)N1CCC[C@H]1C(=O)NCCCCNCCCN` [Compound 8, 10-[N--(7-guanidinoheptanoyl)-L-prolyl]-1,5,10-triazadecane trihydrochloride], for which, in data set [1], the share remaining at 12 h stood at 100%, the fraction remaining at 24 h is 100%, the share remaining at 48 h was 99.6% and the amount remaining at 72 h was 99.8%. Moreover, in data set [1], the share remaining at 120 h is 99.8% and the amount remaining at 168 h is 100%. In addition, in the data set on Bacillus subtilis PCI219 (setting [3]), the MIC is above 100 µg/mL.
Turning to `CC(C)C[C@H](NC(=O)CCCCCCNC(=N)N)C(=O)NCCCCNCCCN` [Compound 9, 10-[N--(7-guanidinoheptanoyl)-L-leucyl]-1,5,10-triazadecane trihydrochloride], in data set [1], the fraction remaining at 12 h amounted to 99.7%, the share remaining at 24 h came out at 99.9%, the share remaining at 48 h amounted to 99.8% and the fraction remaining at 72 h is 100%. In data set [1], the amount remaining at 120 h was 100% and the amount remaining at 168 h turned out to be 99.9%. Also, the MIC in the data set with Bacillus subtilis PCI219 (setting [3]) was above 100 µg/mL. In data set [2], this molecule had an IC50 of 70 µg/mL.
On to `N=C(N)NCCCCCCC(=O)N[C@@H](CC(=O)O)C(=O)NCCCCNCCCN` [Compound 10, 10-[N--(7-guanidinoheptanoyl)-L-asparthyl]-1,5,10-triazadecane trihydrochloride], for which, in data set [1], the amount remaining at 12 h is 99.9%, the fraction remaining at 24 h was 99.4%, the amount remaining at 48 h worked out at 99.8% and the share remaining at 72 h amounted to 100%. Besides, in data set [1], the fraction remaining at 120 h stood at 99.8% and the amount remaining at 168 h was found to be 99.9%. Besides, the minimal inhibitory concentration (MIC) in the data set with Bacillus subtilis PCI219 (setting [3]) was above 100 µg/mL. The same molecule gave an IC50 in data set [2] of 130 µg/mL.
Take `Cl.Cl.Cl.N=C(N)NCCCCCCC(=O)N[C@@H](CCC(N)=O)C(=O)NCCCCNCCCN` [Compound 11, 10-[N--(7-guanidinoheptanoyl)-L-glutaminyl]-1,5,10-triazadecane trihydrochloride]: the “Residual content (%) of the compound in an aqueous solution” value is given as 99.5% in data set [1] (12 hr); 99.7% in data set [1] (24 hr); 101% in data set [1] (48 hr); 99.5% in data set [1] (72 hr); 100% in data set [1] (120 hr); 99.3% in data set [1] (168 hr). For the same molecule, in the data set with Bacillus subtilis PCI219, the MIC is above 100 µg/mL.
For `N=C(N)NCCCCCCC(=O)N[C@@H](CCCNC(=N)N)C(=O)NCCCCNCCCN` [Compound 12, 10-[N--(7-guanidinoheptanoyl)-L-arginyl]-1,5,10-triazadecane trihydrochloride], in data set [1], the amount remaining at 12 h was determined as 100%, the amount remaining at 24 h turned out to be 99.4%, the fraction remaining at 48 h amounted to 99.7% and the amount remaining at 72 h is 99.9%. In addition, in data set [1], the amount remaining at 120 h came to 100% and the amount remaining at 168 h was 99.7%. In addition, the MIC with Bacillus subtilis PCI219 (setting [3]) amounted to 12.5 µg/mL. Moreover, half-maximal inhibition in data set [2] (IC50) required 1.5 µg/mL.
For the molecule `N=C(N)NCCCCCCC(=O)N[C@@H](Cc1ccccc1)C(=O)NCCCCNCCCN` [Compound 13, 10-[N--(7-guanidinoheptanoyl)-L-phenylalanyl]-1,5,10-triazadecane trihydrochloride], in data set [1], the fraction remaining at 12 h worked out at 99.8%, the share remaining at 24 h came out at 99.5%, the amount remaining at 48 h came out at 99.9% and the share remaining at 72 h amounted to 100%. For the same molecule, in data set [1], the amount remaining at 120 h stood at 101% and the amount remaining at 168 h stood at 100%. In addition, the MIC in the data set on Bacillus subtilis PCI219 (setting [3]) was above 100 µg/mL. For the same molecule, in data set [2], the IC50 turned out to be 2.8 µg/mL.
Regarding `N=C(N)NCCCCCCC(=O)N[C@@H](Cc1cnc[nH]1)C(=O)NCCCCNCCCN` [Compound 14, 10-[N--(7-guanidinoheptanoyl)-L-histidyl]-1,5,10-triazadecane trihydrochloride], in data set [1], the fraction remaining at 12 h came out at 99.1%, the share remaining at 24 h was 99%, the share remaining at 48 h was determined as 99.6% and the amount remaining at 72 h was 99.5%. In addition, in data set [1], the amount remaining at 120 h came to 99.9% and the amount remaining at 168 h came to 99.6%. Moreover, the MIC in the data set on Bacillus subtilis PCI219 (setting [3]) was 50 µg/mL. The same molecule came in with a half-maximal inhibitory concentration (IC50) in data set [2] of 51 µg/mL.
As to `C[C@@H](O)[C@H](NC(=O)CCCCCCNC(=N)N)C(=O)NCCCCNCCCN` [Compound 15, 10-[N--(7-guanidinoheptanoyl)-L-threonyl]-1,5,10-triazadecane trihydrochloride], in data set [1], the share remaining at 12 h worked out at 99.2%, the share remaining at 24 h turned out to be 99.8%, the fraction remaining at 48 h amounted to 99.1% and the fraction remaining at 72 h came to 100%. In addition, in data set [1], the fraction remaining at 120 h was 99.6% and the amount remaining at 168 h is 100%. In addition, the MIC in the data set on Bacillus subtilis PCI219 (setting [3]) was 100 µg/mL. Further, the IC50 in data set [2] came to 180 µg/mL.
Regarding `CC(=O)O[C@@H](CCCCNC(=N)N)CC(=O)NCC(=O)NCCCCNCCCN` [Compound 16, 10-[N--(7-guanidino-3(S)--acetoxyheptanoyl)-glycyl-1,5,10-triazadecanetrihydrochloride], in data set [1], the fraction remaining at 12 h came out at 99.9%, the fraction remaining at 24 h worked out at 99.5%, the amount remaining at 48 h turned out to be 99.6% and the amount remaining at 72 h is 99.2%. For the same molecule, in data set [1], the fraction remaining at 120 h turned out to be 99.6% and the amount remaining at 168 h was found to be 99.6%. For the same molecule, in the data set on Bacillus subtilis PCI219 (setting [3]), the MIC is above 100 µg/mL.
